Read-outs that look alike come from different tables or passages of the source.
Key:
[1] = ref database module of ACD/Labs software, cited from earlier work
[2] = logD determined by multi-parameter QSRR models from IS-RPLC logkw; conditions: IS-RPLC retention (logkw)
Method: Multi-parameter QSRR models including logD, logkw, ne, A, and B were established using the multiple linear regression (MLR) method. In the process of linear fitting, ne, A, B, and their different combinations were introduced to optimize the models.
The logD values reported in the literature for these four compounds were calculated using Equation (S3) with corresponding pKa, logP, and pH values.
(§1) At each pH, the retention time (tR) of every analyte was determined for at least four different volume fractions (φ) of methanol. All the tR values of the solutes were obtained by averaging the results of at least three independent injections. The tR value was corrected using dual-point retention time correction (DP-RTC). For a detailed description of the process, refer to our previous work. For the different hydrophobicities of the studied compounds, benzene, toluene, and benzyl alcohol were used as anchor compounds in the DP-RTC method. The dead time t0 was determined using uracil. For each solute, the logarithm of k was plotted against φ, and logkw was obtained using the Equation (S1). The logD values of the model compounds were calculated using Equation (S3), and the logD–logkw models were established with Equation (S4). The statistical analysis for the regression model was accomplished using Origin 9.4.

[3] = Source text: (§2) The retention behavior of the 42 basic compounds (Table 1) were investigated at different ratios of methanol (φ = 0.7–0.1, the interval was 0.1 or 0.05 based on the retention of the investigated solutes). The logk values were plotted versus φ for each solute at pH 7.0, pH 8.0, pH 9.0, and pH 10.0. […] The logD values of the model compounds and verification compounds calculated using Equation (S3) based on the logP and pH values are also listed in Table 1.
as §1, with “9.4. […]” for “9.4.”
(§3) Where, k is the capacity factor, φ is the volume fraction of organic modifier in the mobile phase, and S is the constant obtained by linear regression in the equations. […]
and logkw, which is usually called Collander equation [25 ]. lo g lo g wPm k n= + (S2)
Where, m and n are constants obtained by linear regression.
The Eqs. (S1) and (S2) are the basis for the determination of logP by revered- phase liquid chromatography (RPLC) method. For dissociative solutes, it has been confirmed by many studies that the logD calibrated from logP has a better linear correlation with logkw than logP.
For basic compounds, the logD value can be calibrated from Eq. (S3), and the Collander equation can be rewritten into Eq. (S4). log log( )D − −+ −+= + ++P […]
lo g ' lo g 'Dm k n= +w (S4)
Where, pKa1, pKa2 , … p Kan are the dissociation constants of basic compounds of corresponding acids in the mobile phase, pH is the pH value of mobile phase, m′ and n′ are fitting parameters. Han et al. pointed out that although mobile phase pH and pKa of solutes will change along with the varied organic modifier fraction, the difference between a couple of relevant pH and pKa is a constant. Therefore, the used pH and pKa in this paper were both the values obtained at 100% aqueous phase. […]

[4] = set-up: method as in UFZ-LSER database; conditions: hydrogen bonding parameter B; ref UFZ-LSER database; cited from earlier work
[5] = IS-RPLC retention on silica-based C18 column, logkw by linear solvent strength model; assay type: physicochemical
Method: as §2
The column temperature was set at 30 °C. Methanol and 20 mmol/L ammonium phosphate buffer (pH = 7.0, 8.0, 9.0, 10.0) was used as the mobile phase to perform isocratic elution. The injection volume was 10 µL and the detection wavelength for each eluted compound was set at its optimum absorption wavelength.
as §1, with “9.4. […]” for “9.4.”
as §3
The Eqs. (S1) and (S2) are the basis for the determination of logP by revered- phase liquid chromatography (RPLC) method. For dissociative solutes, it has been confirmed by many studies that the logD calibrated from logP has a better linear correlation with logkw than logP. […]

[6] = ref database module of ACD/Labs software, cited from earlier work; for pKa: Table 4, verification compounds
[7] = Table 4, verification compounds
[8] = pH 7.0, methanol/20 mmol/L ammonium phosphate buffer, Welch Xtimate C18, 30 °C, 100% aqueous extrapolation
[9] = pH 8.0, methanol/20 mmol/L ammonium phosphate buffer, Welch Xtimate C18, 30 °C, 100% aqueous extrapolation
[10] = pH 9.0, methanol/20 mmol/L ammonium phosphate buffer, Welch Xtimate C18, 30 °C, 100% aqueous extrapolation
[11] = pH 10.0, methanol/20 mmol/L ammonium phosphate buffer, Welch Xtimate C18, 30 °C, 100% aqueous extrapolation
[12] = pH 7.0, calculated with literature logP, pKa and pH, Equation (S3)
[13] = pH 8.0, calculated with literature logP, pKa and pH, Equation (S3)
[14] = pH 9.0, calculated with literature logP, pKa and pH, Equation (S3)
[15] = pH 10.0, calculated with literature logP, pKa and pH, Equation (S3)

Row | Compound | logP ([1]; n-octanol/water) | logDpH 7.0 ([3]; pH 7) | logDpH 8.0 ([3]; pH 8) | logDpH 9.0 ([3]; pH 9) | logDpH 10.0 ([3]; pH 10) | B [4] | logkw-pH 7.0 [5, 8] | logkw-pH 8.0 [5, 9] | logkw-pH 9.0 [5, 10] | logkw-pH 10.0 [5, 11] | pKa1 [6] | logDpH 8.0 [3, 13] | logkw-pH 7.0 ([5]; pH 7) | logkw-pH 8.0 ([5]; pH 8) | logkw-pH 9.0 ([5]; pH 9) | logkw-pH 10.0 ([5]; pH 10) | also measured
1 | Nc1ccc(Br)cc1 [4-Bromoaniline] | 2.05 | 1.74 | 1.74 | 1.74 | 1.74 | 1.19 | 1.91 | 1.98 | 1.99 | 1.99 | 3.89 |  |  |  |  |  | logP [1, 7]: 2.05; chromatographic logD ([2]; pH 7): 1.83; chromatographic logD ([2]; pH 8): 1.81; chromatographic logD ([2]; pH 9): 1.85; chromatographic logD ([2]; pH 10): 1.81; pKa [6]: 3.89
2 | Cc1ccnc(C)c1 [2,4-Dimethylpyridine] | 1.65 |  |  |  |  | 0.63 | 1.76 | 1.85 | 1.88 | 1.96 | 6.58 | 1.63 |  |  |  |  | logDpH 7.0 [3, 12]: 1.51; logDpH 9.0 [3, 14]: 1.65; logDpH 10.0 [3, 15]: 1.65
3 | c1ccc(CNCc2ccccc2)cc1 [Dibenzylamine] | 3.03 | 1.26 | 2.20 | 2.83 | 3.01 | 1.30 | 2.42 | 2.99 | 3.28 | 4.54 | 8.76 |  |  |  |  |  | logP [1, 7]: 3.03; chromatographic logD ([2]; pH 7): 1.52; chromatographic logD ([2]; pH 8): 2.36; chromatographic logD ([2]; pH 9): 2.81; chromatographic logD ([2]; pH 10): 3; pKa [6]: 8.76
4 | Cc1ccnc(N)c1 [2-Amino-4-methylpyridine] | 0.89 |  |  |  |  | 0.95 | 1.00 | 1.16 | 1.28 | 1.32 | 7.38 | 0.80 |  |  |  |  | logDpH 7.0 [3, 12]: 0.36; logDpH 9.0 [3, 14]: 0.88; logDpH 10.0 [3, 15]: 0.89
5 | Cc1ccc(N)c(C)c1 [2,4-Dimethylaniline] | 1.68 | 1.68 | 1.68 | 1.68 | 1.68 | 0.95 |  |  |  |  | 4.70 |  | 1.92 | 1.98 | 2.00 | 2.04 | 
6 | COc1ccc(N)cc1 [4-Methoxyaniline] | 0.80 | 0.79 |  | 0.80 | 0.80 | 1.05 |  |  |  |  | 5.36 | 0.80 | 1.05 | 0.99 | 1.07 | 1.11 | 
7 | COc1ccccc1N [2-Methoxyaniline] | 0.95 | 0.95 | 0.95 | 0.95 | 0.95 | 0.99 |  |  |  |  | 4.53 |  | 1.38 | 1.41 | 1.42 | 1.49 | 
8 | Cc1ccc(N)cc1 [4-Methylaniline] | 1.41 | 1.40 | 1.41 | 1.41 | 1.41 | 0.94 |  |  |  |  | 5.08 |  | 1.50 | 1.53 | 1.54 | 1.58 | 
9 | Cc1cccc(C)n1 [2,6-Dimethylpyridine] | 1.68 | 1.52 | 1.66 | 1.68 | 1.68 | 0.61 | 1.68 | 1.76 | 1.78 | 1.81 | 6.65 |  |  |  |  |  | 
10 | Cc1ccncc1 [4-Methylpyridine] | 1.33 | 1.29 | 1.33 | 1.33 | 1.33 | 0.63 | 1.40 | 1.41 | 1.44 | 1.46 | 5.99 |  |  |  |  |  | 
